Source: paper PMC11258331 (Scientific Reports, 2024)
Marks after values point to notes of the source that are not given here.

Columns and labels:
[1] = tested on: platelet aggregation induced by adenosine diphosphate (ADP); assay: ADP (20 µM)-induced platelet aggregation, light transmission aggregometry; type: in vivo, human; settings: drug alone (Treatment E or H)
Protocol: (§1) PD assessments were performed on Days 1 (≤ 24 h) and 5 (≤ 72 h) of each period (Supplementary Table 8); assessments included aPTT[18], FXIc[18], and bleeding time (assessed according to the PPD® Laboratories [Austin, TX] procedure where a blood pressure cuff, situated above the incision site, provided pressure at 40 mmHg and blood from the incision was wicked with filter paper every 30 s until cessation to record bleeding time). In addition, AA (1 mM), ADP) (20 µM)-, and collagen (5 μg/ml)-induced platelet aggregation assays were performed using light transmission aggregometry (PPD® Laboratories) and performed on Days 1 and 5 (≤ 24 h) for only Period 1.

[2] = tested on: arachidonic acid (AA)-induced platelet aggregation; assay: AA (1 mM)-induced platelet aggregation, light transmission aggregometry; type: in vivo, human; settings: drug alone (Treatment E or H)
Protocol: as §1

[3] = Plasma pharmacokinetics (LC-MS/MS, noncompartmental; GMR by linear mixed-effects model); settings: for Cmax: geometric mean (90% CI);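 as to all read-outs here: participants at one US clinical research site, randomized 1:1:1 to a single study part, with 90% CIs from a mixed-effects model on log-transformed PK parameters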
Protocol: The study (ClinicalTrials.gov Identifier: NCT03698513) was conducted at 1 clinical research center in the United States. […] Participants underwent screening evaluations to determine eligibility within 35 days of study drug administration, and eligible participants were randomly assigned 1:1:1 to a single part of the study.
All statistical analyses and calculations were performed using SAS® software (SAS Institute, Inc., Cary, North Carolina; version 9.3). All safety and plasma PK/PD data were summarized using descriptive statistics. Descriptive summaries were presented for continuous variables using number of subjects (N), mean, SD; median, minimum, and maximum. […] CIs were constructed using a linear mixed-effects model with treatment as a fixed effect and measurements within participants as repeated measures fitted to the log-transformed PK parameters.

healthy participants = assay: Adverse events and bleeding-related AEs by treatment, phase I DDI study;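 also: counts from medical review of adverse event and bleeding-related adverse event reports, collected at selected times across the dosing interval, single US site, randomised 1:1:1 to one study part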
Protocol: Participants underwent screening evaluations to determine eligibility within 35 days of study drug administration, and eligible participants were randomly assigned 1:1:1 to a single part of the study.
Safety assessments were performed at selected times throughout the dosing interval (Supplementary Table 7). The assessments were based on medical review of AE and bleeding-related AE reports, and the results of vital sign measurements, ECG measurements, physical examinations, and clinical laboratory tests.

[4] = tested on: platelet aggregation induced by collagen; assay: Collagen (5 μg/ml)-induced platelet aggregation, light transmission aggregometry; type: in vivo, human; settings: drug alone (Treatment E or H)
Protocol: as §1

human carboxylesterase 1 = settings: liver; cited from earlier work

COC(=O)[C@H](c1ccccc1Cl)N1CCc2sccc2C1 [Clopidogrel]
Inhibition of ADP-induced aggregation compared with baseline [1]: ~ 50%
Inhibition of AA-induced aggregation compared with baseline [2]: ~ 60%
Reduction of Cmax ([3]; Day 1, Treatment A vs Treatment C (aspirin and clopidogrel without milvexian)): 14%
Reduction of Cmax ([3]; Day 1, Treatment F (with milvexian) vs Treatment E (clopidogrel alone)): 9.1%
Cmax, geometric mean (90% CI) ([3]; Day 1, plasma, Treatment F (milvexian + clopidogrel), Part 2): 4.05 (3.09, 5.31) ng/mL
Cmax, geometric mean [n] (90% CI) ([3]; Day 5, plasma, Treatment C (placebo + aspirin + clopidogrel), Part 1): 1.15 (0.898, 1.46) ng/mL
Cmax ([3]; human, plasma, oral, Day 1, plasma, Treatment A (milvexian + aspirin + clopidogrel), Part 1): 3.29 ng/mL
Cmax ([3]; human, plasma, oral, Day 1, plasma, Treatment C (placebo + aspirin + clopidogrel), Part 1): 3.83 ng/mL
Cmax ([3]; human, plasma, oral, Day 1, plasma, Treatment E (placebo + clopidogrel), Part 2): 4.45 ng/mL
half-life ([3]; human, plasma, oral, Mean T1/2, with (Treatment F) and without (Treatment E) milvexian, Days 1 and 5): 1 to 2 h
Tmax ([3]; human, plasma, oral, Median Tmax, Day 1, Treatments F and E): 1 to 1.5 h
Tmax ([3]; human, plasma, oral, Median Tmax, Day 5, Treatments F and E): 0.5 to 1 h
Tmax ([3]; human, plasma, oral, Tmax, median [n] (range), Day 5, plasma, Treatment C (placebo + aspirin + clopidogrel), Part 1): 0.5 h
Anal fissure hemorrhage (healthy participants; Part 2 (Treatments D-F)): 0 n (%)
Contusion (healthy participants; Part 2 (Treatments D-F)): 1 (2.8)^†† n (%)
Deaths (healthy participants; Part 2 (Treatments D-F)): 0 n (%)
Discontinuations due to AEs (healthy participants; Part 2 (Treatments D-F)): 1 (2.8)^‖ n (%)
Epistaxis (healthy participants; Part 2 (Treatments D-F)): 0 n (%)
Gingival bleeding (healthy participants; Part 2 (Treatments D-F)): 0 n (%)
Serious AEs (healthy participants; Part 2 (Treatments D-F)): 0 n (%)
Total participants with an AE (healthy participants; Part 2 (Treatments D-F)): 6 (16.7) n (%)
Total participants with bleeding event(s) (healthy participants; Part 2 (Treatments D-F)): 1 (2.8) n (%)
Vessel puncture site bruise (healthy participants; Part 2 (Treatments D-F)): 0 n (%)
Events of contusion reported by a single participant (healthy participants; bleeding AE): 1 events
Inhibition of collagen-induced aggregation compared with baseline [4]: < 10%
Share first-passed hydrolyzed to clopidogrel acid (human carboxylesterase 1): ~ 85 % of absorbed drug
